Results: patent publication US20200037600A1, “MESOIONIC IMIDAZOPYRIDINES AS INSECTICIDES” (Bayer Aktiengesellschaft, priority 2017, published 2020)
Like-named read-outs stand apart in the source and are kept apart here. One block for each compound: values may come before it.

Legend:
[1] = log P by HPLC (EEC directive 79/831 Annex V.A8); type: physicochemical
Experimental: The log P values reported in the tables and preparation examples above were determined in accordance with EEC directive 79/831 Annex V.A8 by HPLC (High Performance Liquid Chromatography) using a reversed-phase column (C18). Temperature 43° C. The calibration is effected with unbranched alkan-2-ones (having 3 to 16 carbon atoms), for which the log P values are known.

Myzus persicae [2] = assay: Myzus persicae oral test; type: in vivo; details: after 5 days; for pest or weed control at 4 ppm / pest or weed control at 20 ppm: Myzus persicae, po, 120 h, read-out: efficacy
Experimental: Solvent: 100 parts by weight of acetone
To produce a suitable active compound formulation, 1 part by weight of active compound is dissolved with the stated parts by weight of solvent and made up to the desired concentration with water.
50 μl of the active compound formulation are transferred into microtitre plates and made up to a final volume of 200 μl with 150 μl of IPL41 insect medium (33%+15% sugar). Subsequently, the plates are sealed with parafilm, which a mixed population of green peach aphids (Myzus persicae) within a second microtitre plate is able to puncture and imbibe the solution.
(§1) After 5 days, the efficacy in % is determined. 100% means that all the aphids have been killed; 0% means that no aphids have been killed.

Myzus persicae [3] = assay: Myzus persicae spray test; type: in vivo; details: application rate 500 g/ha, Chinese cabbage leaf discs, after 5 days; for pest or weed control at 500 g/ha: Myzus persicae, foliar, 120 h, read-out: efficacy
Experimental: Myzus persicae—Spray Test
(§2) Solvent: 78 parts by weight of acetone • • 1.5 parts by weight of dimethylformamide
(§3) Emulsifier: alkylaryl polyglycol ether
(§4) To produce a suitable active compound formulation, 1 part by weight of active compound is dissolved with the specified parts by weight of solvent and made up to the desired concentration with water containing an emulsifier concentration of 1000 ppm. To produce further test concentrations, the formulation is diluted with emulsifier-containing water.
Discs of Chinese cabbage leaves (Brassica pekinensis) infested by all stages of the green peach aphid (Myzus persicae) are sprayed with an active compound formulation of the desired concentration.
as §1

Diabrotica balteata = Diabrotica balteata spray test; type: in vivo; details: application rate 160 μg/well, beetle larvae on germinated wheat grains, after 7 days; for pest or weed control at 160 µg/disc, 160 µg/well: Diabrotica balteata, 168 h, read-out: efficacy
Experimental: Diabrotica balteata—Spray Test
as §2, §3, §4
Pre-swollen wheat grains (Triticum aestivum) are incubated in a multiwell plate filled with agar and a little water for one day (5 seed grains per well). The germinated wheat grains are sprayed with an active compound preparation of the desired concentration. Subsequently, each cavity is infected with 10-20 beetle larvae of Diabrotica balteata.
After 7 days, the efficacy in % is determined. 100% means that all maize plants have grown as in the untreated, uninfected control; 0% means that no maize plant has grown.

[4] = HPLC, reversed-phase column (C18), 43° C, acidic (HCOOH), read-out: log P (HCOOH)

SMILES: O=C(COCc1ccnc(Cl)c1)c1c([O-])[n+]2ccccc2n1Cc1ccc(Cl)nc1 [Example I-084, 2-[2-[(2-chloro-4-pyridyl)methoxy]acetyl]-1-[(6-chloro-3-pyridyl)methyl]imidazo[1,2-a]pyridin-4-ium-3-olate]
chromatographic logP [1]: 1.73

SMILES: O=C(OCC(F)F)C(=O)c1c([O-])[n+]2ccccc2n1Cc1cnc(Cl)s1 [Example I-051]
efficacy (Myzus persicae [2]; application rate 4 ppm): 100%
efficacy (Myzus persicae [3]): 90%

SMILES: COC(=O)C(=O)c1c([O-])[n+]2ccccc2n1Cc1cnc(Cl)s1 [Example I-032]
efficacy (Myzus persicae [2]; application rate 4 ppm): 100%
efficacy (Myzus persicae [3]): 100%

SMILES: O=C(c1ccc(Cl)cc1)c1c([O-])[n+]2ccccc2n1Cc1cnc(Cl)s1 [Example I-030]
efficacy (Diabrotica balteata): 100%
efficacy (Myzus persicae [2]; application rate 4 ppm): 100%

SMILES: O=C(OCCc1ccccc1)C(=O)c1c([O-])[n+]2ccccc2n1Cc1cnc(Cl)s1 [Example I-052]
efficacy (Myzus persicae [2]; application rate 4 ppm): 100%

SMILES: CC(C)(C)OC(=O)CN(Cc1cnc(Cl)s1)c1ncccc1I [IV-2-002]
chromatographic logP [1]: 4.62

SMILES: COCC(=O)c1c([O-])[n+]2ccccc2n1Cc1ccc(Cl)nc1 [Example I-009]
efficacy (Myzus persicae [2]; application rate 4 ppm): 100%
efficacy (Myzus persicae [2]; application rate 20 ppm): 100%

SMILES: O=C(c1cccc(C(F)(F)F)c1)c1c([O-])[n+]2ccccc2n1Cc1cncnc1 [Example I-049]
efficacy (Myzus persicae [2]; application rate 4 ppm): 100%
efficacy (Myzus persicae [3]): 90%

SMILES: O=C(NCc1ccccc1)c1c([O-])[n+]2ccccc2n1Cc1cnc(Cl)s1 [Example I-022]
efficacy (Diabrotica balteata): 100%

SMILES: O=C(Cn1cc(Cl)cn1)c1c([O-])[n+]2ccccc2n1Cc1ccc(Cl)nc1 [Example I-006]
efficacy (Myzus persicae [2]; application rate 20 ppm): 100%

SMILES: O=C(c1c([O-])[n+]2ccccc2n1Cc1cncnc1)C(F)(F)F [Example I-012]
efficacy (Myzus persicae [2]; application rate 4 ppm): 100%
efficacy (Myzus persicae [2]; application rate 20 ppm): 100%

SMILES: O=C(c1c([O-])[n+]2cccc(I)c2n1Cc1cnc(Cl)s1)C(F)(F)F [Example I-112, 1-[(2-chlorothiazol-5-yl)methyl]-8-iodo-2-(2,2,2-trifluoroacetyl)imidazo[1,2-a]pyridin-4-ium-3-olate]
chromatographic logP [1]: 2.37

chromatographic logP [1, 4]: 4.73
SMILES: CC(C)(C)OC(=O)CN(Cc1cnc(Cl)s1)c1ncccc1C1CC1 [IV-2-003]

SMILES: O=C(OCCC(F)(F)F)C(=O)c1c([O-])[n+]2ccccc2n1Cc1cnc(Cl)s1 [Example I-054]
efficacy (Myzus persicae [2]; application rate 4 ppm): 100%
efficacy (Myzus persicae [3]): 70%

SMILES: O=C(CCl)c1c([O-])[n+]2ccccc2n1Cc1cnc(Cl)s1 [Example I-005, 2-(2-Chloroacetyl)-1-[(2-chlorothiazol-5-yl)methyl]imidazo[1,2-a]pyridin-4-ium-3-olate]
pest or weed control at 160 µg/disc, 160 µg/well (Diabrotica balteata): 80%
pest or weed control at 4 ppm (Myzus persicae [2]; application rate 4 ppm): 100%
pest or weed control at 20 ppm (Myzus persicae [2]; application rate 20 ppm): 100%
chromatographic logP [1]: 1.58

SMILES: O=C(CCl)c1c([O-])[n+]2ccccc2n1Cc1ccc(Cl)nc1 [Example I-001]
efficacy (Myzus persicae [2]; application rate 20 ppm): 100%

SMILES: O=C(NCC1CC1)c1c([O-])[n+]2ccccc2n1Cc1cnc(Cl)s1 [Example I-016]
efficacy (Diabrotica balteata): 100%
efficacy (Myzus persicae [2]; application rate 4 ppm): 90%

SMILES: O=C(O)CN(Cc1cnc(Cl)s1)c1ccccn1 [Example V-1-001, 2-[(2-Chlorothiazol-5-yl)methyl-(2-pyridyl)amino]acetic Acid]
chromatographic logP [1]: 1.21

chromatographic logP [1, 4]: 1.83
SMILES: O=C(Cn1cc(Cl)cn1)c1c([O-])[n+]2ccccc2n1Cc1cnc(Cl)s1 [Example I-004, 2-[2-(4-Chloropyrazol-1-yl)acetyl]-1-[(2-chlorothiazol-5-yl)methyl]imidazo[1,2-a]pyridin-4-ium-3-olate]
pest or weed control at 20 ppm (Myzus persicae [2]; application rate 20 ppm): 90%

SMILES: Cc1cccnc1N(CC(=O)OC(C)(C)C)Cc1cnc(Cl)s1 [tert-Butyl 2-[(2-chlorothiazol-5-yl)methyl-(3-methyl-2-pyridyl)amino]acetate]
chromatographic logP [1]: 4.13

SMILES: CC(C)(C)OC(=O)C(=O)c1c([O-])[n+]2ccccc2n1Cc1cnc(Cl)s1 [Example I-066]
efficacy (Myzus persicae [2]; application rate 4 ppm): 90%
efficacy (Myzus persicae [3]): 90%

SMILES: O=C(OCc1cccc(Cl)n1)C(=O)c1c([O-])[n+]2ccccc2n1Cc1cnc(Cl)s1 [Example I-042]
efficacy (Myzus persicae [3]): 100%

SMILES: O=C(c1c([O-])[n+]2ccccc2n1Cc1cnc(Cl)s1)C1CC1 [Example I-031]
efficacy (Diabrotica balteata): 100%
efficacy (Myzus persicae [2]; application rate 4 ppm): 90%

SMILES: CO/N=C/C(=O)c1c([O-])[n+]2ccccc2n1Cc1cnc(Cl)s1 [Example I-059, 1-[(2-chlorothiazol-5-yl)methyl]-2-[(2E)-2-methoxyiminoacetyl]imidazo[1,2-a]pyridin-4-ium-3-olate]
pest or weed control at 160 µg/disc, 160 µg/well (Diabrotica balteata): 100%
pest or weed control at 4 ppm (Myzus persicae [2]; application rate 4 ppm): 100%
pest or weed control at 500 g/ha (Myzus persicae [3]): 70%
chromatographic logP [1]: 1.45

chromatographic logP [1, 4]: 2.99
SMILES: O=C(c1c([O-])[n+]2cccc(-c3ccccc3)c2n1Cc1cnc(Cl)s1)C(F)(F)F [Example I-109, 1-[(2-chlorothiazol-5-yl)methyl]-8-phenyl-2-(2,2,2-trifluoroacetyl)imidazo[1,2-a]pyridin-4-ium-3-olate]

SMILES: CCOC(=O)C(=O)c1c([O-])[n+]2ccccc2n1Cc1cnc(Cl)s1 [Example I-029, 1-[(2-chlorothiazol-5-yl)methyl]-2-(2-ethoxy-2-oxoacetyl)imidazo[1,2-a]pyridin-4-ium-3-olate]
pest or weed control at 4 ppm (Myzus persicae [2]; application rate 4 ppm): 100%
chromatographic logP [1]: 1.55

SMILES: CNC(=O)c1c([O-])[n+]2ccccc2n1Cc1cnc(Cl)s1 [Example I-017]
efficacy (Diabrotica balteata): 100%
efficacy (Myzus persicae [2]; application rate 4 ppm): 100%

SMILES: Cc1ccc[n+]2c([O-])c(C(=O)C(=O)OCC3CC3)n(Cc3cnc(Cl)s3)c12 [Example I-047]
pest or weed control at 160 µg/disc, 160 µg/well (Diabrotica balteata): 100%
pest or weed control at 4 ppm (Myzus persicae [2]; application rate 4 ppm): 100%
pest or weed control at 500 g/ha (Myzus persicae [3]): 90%

SMILES: Cc1ccc[n+]2c(O)cn(Cc3cnc(Cl)s3)c12 [VII-1-001, 1-[(2-Chlorothiazol-5-yl)methyl]-8-methylimidazo[1,2-a]pyridin-4-ium-3-ol; 2,2,2-trifluoroacetate]
chromatographic logP [1, 4]: 0.75

SMILES: O=C(CBr)c1c([O-])[n+]2ccccc2n1Cc1cnc(Cl)s1 [Example I-020]
efficacy (Myzus persicae [2]; application rate 4 ppm): 100%
efficacy (Myzus persicae [3]): 90%

chromatographic logP [1, 4]: 2.48
SMILES: O=C(c1c([O-])[n+]2cccc(C3CC3)c2n1Cc1cnc(Cl)s1)C(F)(F)F [Example I-078, 1-[(2-chlorothiazol-5-yl)methyl]-8-cyclopropyl-2-(2,2,2-trifluoroacetyl)imidazo[1,2-a]pyridin-4-ium-3-olate]

SMILES: CC(C)(C)OC(=O)CN(Cc1cnc(Cl)s1)c1ccccn1 [tert-Butyl 2-[(2-chlorothiazol-5-yl)methyl-(2-pyridyl)amino]acetate]
chromatographic logP [1]: 3.59

SMILES: CC(=O)c1c([O-])[n+]2ccccc2n1Cc1ccc(Cl)nc1 [Example I-003]
efficacy (Myzus persicae [2]; application rate 4 ppm): 90%
efficacy (Myzus persicae [2]; application rate 20 ppm): 100%

SMILES: CCC(=O)c1c([O-])[n+]2ccccc2n1Cc1cnc(Cl)s1 [Example I-014]
efficacy (Diabrotica balteata): 80%
efficacy (Myzus persicae [2]; application rate 4 ppm): 100%

SMILES: Oc1cn(Cc2cnc(Cl)s2)c2c(C3CC3)ccc[n+]12 [VII-1-003, 1-[(2-chlorothiazol-5-yl)methyl]-8-cyclopropylimidazo[1,2-a]pyridin-4-ium-3-ol 2,2,2-trifluoroacetate]
chromatographic logP [1, 4]: 1.27

SMILES: O=C(OCc1ccccc1)C(=O)c1c([O-])[n+]2ccccc2n1Cc1cnc(Cl)s1 [Example I-053]
efficacy (Myzus persicae [2]; application rate 4 ppm): 100%

SMILES: C#CCOC(=O)C(=O)c1c([O-])[n+]2ccccc2n1Cc1cnc(Cl)s1 [Example I-055]
efficacy (Myzus persicae [2]; application rate 4 ppm): 100%
efficacy (Myzus persicae [3]): 90%

SMILES: Oc1cn(Cc2cnc(Cl)s2)c2c(I)ccc[n+]12 [VII-1-002, 1-[(2-chlorothiazol-5-yl)methyl]-8-iodoimidazo[1,2-a]pyridin-4-ium-3-ol 2,2,2-trifluoroacetate]
chromatographic logP [1, 4]: 1.22

SMILES: O=C(OCC(F)(F)F)C(=O)c1c([O-])[n+]2ccccc2n1Cc1cnc(Cl)s1 [Example I-036]
efficacy (Myzus persicae [2]; application rate 4 ppm): 100%
efficacy (Myzus persicae [3]): 90%

SMILES: O=C(c1c([O-])[n+]2ccccc2n1Cc1ccc(Cl)nc1)C(F)(F)F [Example I-002]
efficacy (Diabrotica balteata): 100%
efficacy (Myzus persicae [2]; application rate 4 ppm): 100%
efficacy (Myzus persicae [2]; application rate 20 ppm): 100%
efficacy (Myzus persicae [3]): 100%

SMILES: CC(C)=CCOC(=O)C(=O)c1c([O-])[n+]2ccccc2n1Cc1cnc(Cl)s1 [Example I-057]
efficacy (Myzus persicae [2]; application rate 4 ppm): 100%
efficacy (Myzus persicae [3]): 90%
